8 compounds from patent publication US9383644B2, “Sulfonic acid derivative compounds as photoacid generators in resist applications” (Heraeus Precious Metals North America Daychem LLC, priority 2014, dated 2016) can be followed below.

Common to all, as to format: physicochemical
Data set [1] is described as follows: Photoreactivity: photolysis of PAGs in acetonitrile at 365 nm, photoreaction constant from UV-Vis absorbance. The settings on record: for Relative Photoreactivity (normalized photoreaction constant) at 365 nm: acetonitrile, air, room temperature, 3×10^−5 M, NIT normalized to one; for Solubility x relative Photoreactivity: product of solubility in PGMEA and relative photoreactivity at 365 nm. The text has this:
A photoresist composition typically comprises PAG, polymers, additives and solvents. The performance of a photoresist composition is mainly dependent on the properties of the PAG and polymer components. To formulate a high-performance photoresist composition, more photosensitive PAGs are typically selected. The photosensitivity of a PAG is typically directly related to the strength of the generated acid and the photoreactivity of the PAG. For a series of PAGs producing the same latent acid, their photosensitivity is related only to their photoreactivity. Thus evaluating the photosensitivity of a PAG can be achieved by studying its photoreactivity. The higher photoreactivity, the higher photosensitivity. The photoreactivity can be investigated by photolysis of a PAG in its dilute solution under low exposure intensity (to avoid side reactions which don't generate the desired acid). The change in the concentration of a PAG upon irradiation can be determined by measuring the absorbance of the PAG at the maximum absorption wavelength.
Photolysis of PAGs was carried out in acetonitrile in air at room temperature. The sodium salt of tetrabromophenol blue (TBPBNa), an acid indicator dye, which has a maximum absorption at 618 nm, was purchased from Aldrich (indicator grade) and used as received. Irradiation of the solution of the PAGs (3×10^−5 M) was performed using a Cole-Parmer UV 15 W bench lamp (EW-97605-50) at 365 nm. Light intensity was measured using an UV Power Puck II radiometer from EIT Inc. UV-Vis spectra were run on a Thermo Scientific Evolution 201 UV-visible spectrophotometer.
Photolysis of NIT, comparative compound A and B, S-3, and S-11 was examined in acetonitrile. The absorption band at 400 nm gradually decreases upon irradiation, indicating the progress of photoreaction with the increase of exposure dose of energy. Assuming the photoreaction is first-order, plot of natural log of changes in absorbance with exposure dose of energy gives the photoreaction constant of S-3 (i.e., the slope of the linear trendline) (FIG. 3). The photoreaction constants of other compounds were similarly determined under the same irradiation condition. Comparing the constants of A, B, S-3, and S-11 with that of NIT normalized to one gives the relative photoreactivity (Table 7). […] The formation of acid upon irradiation was confirmed by observing the spectral changes of the acid indicator, TBPBNa at 618 nm.

Data set [2] in a line: Solubility of PAG in organic solvents (solvent added until completely dissolved). The following applies: for Solubility (w/v %) Cyclohexanone / Solubility (w/v %) PGMEA / Solubility (w/v %) GBL: 20° C.; for Solubility (w/v %) PGMEA / Solubility (w/v %) in PGMEA: Propylene glycol monomethyl ether acetate; for Solubility (w/v %) PGMEA: Table 8; for Solubility (w/v %) in PGMEA: Table 7; for Solubility (w/v %) GBL: γ-Butyrolactone; for Solubility in organic solvents (in words): PGMEA, cyclohexanone, GBL. The text has this:
Solubility is an important factor in the evaluation of a PAG. High solubility not only makes a PAG purified readily but also enables a PAG to be used for a wide range of concentrations in photoresists and in varied solvent systems. To test the solubility of a PAG, a solvent is slowly added until the PAG is completely dissolved and no turbidity is observed in the clear solution. Table 8 lists the solubility (w/v %) of some representative N-hydroxynaphthalimide sulfonate derivatives versus NIT in various organic solvents at 20° C. […] All compounds except for S-6 and O-12 show much higher solubility than the commercial benchmark (NIT).

Data set [3] is described as follows: UV absorbance of PAG compounds (FIG. 1). The settings on record: for Absorbance at i-, h-, and g-lines of a mercury lamp (in words): versus NIT. The text has this: FIG. 1 is a graph illustrating the UV absorbance of certain PAG compounds of the invention versus the UV absorbance of certain prior art PAG compounds;
Referring to FIG. 1, the PAG compounds of the invention have excellent solubility in organic solvents and strong absorption at i-, h-, and g-lines of a mercury lamp.

Consider `CCCCSc1ccc2c3c(cccc13)C(=O)N(OS(=O)(=O)C(F)(F)F)C2=O` [Comparative A, reference compound], for which, in data set [1], the “Relative Photoreactivity (normalized photoreaction constant) at 365 nm” value was 13.5 and the “Solubility x relative Photoreactivity” value came out at 14.9%. Moreover, in data set [2], the “Solubility (w/v %) Cyclohexanone” value is reported as 4.1% w/v %, the “Solubility (w/v %) PGMEA” value is recorded as 1.1% w/v %, the “Solubility (w/v %) in PGMEA” value was found to be 1.1% w/v % and the “Solubility (w/v %) GBL” value is 0.9% w/v %.

On to `O=C1c2cccc3c(C#Cc4ccccc4)ccc(c23)C(=O)N1OS(=O)(=O)C(F)(F)F` [Comparative B, reference compound], for which, in data set [1], the “Relative Photoreactivity (normalized photoreaction constant) at 365 nm” value is reported as 2.5 and the “Solubility x relative Photoreactivity” value came to 2.5%. Besides, in data set [2], the “Solubility (w/v %) Cyclohexanone” value was found to be 3.5% w/v %, the “Solubility in organic solvents (in words)” value (“Solubility … (in words)” for short) is recorded as “much lower”, the “Solubility (w/v %) PGMEA” value came to 1.0% w/v % and the “Solubility (w/v %) in PGMEA” value is 1.0% w/v %. Further, in data set [2], the “Solubility (w/v %) GBL” value is 1.1% w/v %.

`O=C1c2cccc3c(Oc4ccccc4)ccc(c23)C(=O)N1OS(=O)(=O)C(F)(F)F` [Compound O-12]: in data set [3], the Strong absorption band was 364 nm; the “Absorbance at i-, h-, and g-lines of a mercury lamp (in words)” value (“Absorbance at i-, h-, and g-lines” for short) was “much larger than that of NIT”. Also, in data set [2], the “Solubility (w/v %) Cyclohexanone” value is 9.0% w/v %, the “Solubility (w/v %) PGMEA” value came to 2.0% w/v % and the “Solubility (w/v %) GBL” value is on record as 1.6% w/v %.

As for `CC(C)Sc1ccc2c3c(cccc13)C(=O)N(OS(=O)(=O)C(F)(F)F)C2=O` [Compound S-3], in data set [3], the Strong absorption band came to 400 nm; the “Absorbance at i-, h-, and g-lines” value was “much larger than that of NIT”. In data set [1], the “Relative Photoreactivity (normalized photoreaction constant) at 365 nm” value stood at 13.3 and the “Solubility x relative Photoreactivity” value is reported as 95.8%. In data set [2], the “Solubility (w/v %) Cyclohexanone” value is on record as 16.6% w/v %, the “Solubility … (in words)” value is listed as “much higher solubility than comparative compound A”, the “Solubility (w/v %) PGMEA” value is 7.2% w/v % and the “Solubility (w/v %) in PGMEA” value is given as 7.2% w/v %. Besides, in data set [2], the “Solubility (w/v %) GBL” value is 8.1% w/v %.

Turning to `CC(C)(C)c1ccc(Sc2ccc3c4c(cccc24)C(=O)N(OS(=O)(=O)C(F)(F)F)C3=O)cc1` [Compound S-6], in data set [3], the Strong absorption band was 400 nm; the “Absorbance at i-, h-, and g-lines” value is reported as “much larger than that of NIT”. In data set [2], the “Solubility (w/v %) Cyclohexanone” value came to 5.3% w/v %, the “Solubility (w/v %) PGMEA” value came to 1.9% w/v % and the “Solubility (w/v %) GBL” value was 1.2% w/v %.

On to `COC(C)CCOC(=O)CCSc1ccc2c3c(cccc13)C(=O)N(OS(=O)(=O)C(F)(F)F)C2=O` (stereo not shown) [Compound S-11], for which, in data set [1], the “Relative Photoreactivity (normalized photoreaction constant) at 365 nm” value was determined as 14.2 and the “Solubility x relative Photoreactivity” value is listed as 765.4%. Moreover, in data set [2], the “Solubility (w/v %) Cyclohexanone” value turned out to be 86.4% w/v %, the “Solubility … (in words)” value is on record as “extremely high solubility”, the “Solubility (w/v %) PGMEA” value came out at 53.9% w/v % and the “Solubility (w/v %) in PGMEA” value is 53.9% w/v %. Moreover, in data set [2], the “Solubility (w/v %) GBL” value was 105.7% w/v %.

In the case of `COC(C)CCOC(=O)CCSc1ccc2c3c(cccc13)C(=O)N(OS(=O)(=O)c1ccc(C)cc1)C2=O` (stereo not shown) [Compound S-43], in data set [2], the “Solubility (w/v %) Cyclohexanone” value came to 37.5% w/v %, the “Solubility … (in words)” value was “extremely high solubility”, the “Solubility (w/v %) PGMEA” value is given as 11.7% w/v % and the “Solubility (w/v %) GBL” value was 67.8% w/v %.

Take `O=C1c2cccc3cccc(c23)C(=O)N1OS(=O)(=O)C(F)(F)F` [NIT, N-Hydroxynaphthalimide triflate, reference compound]: in data set [1], the “Relative Photoreactivity (normalized photoreaction constant) at 365 nm” value stood at 1.0 and the “Solubility x relative Photoreactivity” value turned out to be 1.7%. In data set [2], the “Solubility (w/v %) Cyclohexanone” value is on record as 5.9% w/v %, the “Solubility (w/v %) PGMEA” value amounted to 1.7% w/v %, the “Solubility (w/v %) in PGMEA” value turned out to be 1.7% w/v % and the “Solubility (w/v %) GBL” value stood at 2.2% w/v %.
